In PMC11620503 (Antimicrobial Agents and Chemotherapy, 2024):

Tests used:
Experiment in all cases: Ki app determination (Waley's method)
NDM-6 = NDM-6 (Klebsiella pneumoniae, UniProt C7C422, A233V)
SHV-5 = SHV-5 (Klebsiella pneumoniae, UniProt P0A3M1)
NDM-5 = NDM-5 (Klebsiella pneumoniae, UniProt C7C422, M154L/V88L)
SHV-2 = SHV-2 (Klebsiella pneumoniae, UniProt P0A9Z8)
CTX-M-27 = CTX-M-27 (Escherichia coli, UniProt Q840M4)
OXA-72 = OXA-72 (Acinetobacter baumannii, UniProt Q5XQU0)
IMP-1 = IMP-1 (Serratia marcescens, UniProt P52699)
NDM-1 = NDM-1 (Klebsiella pneumoniae, UniProt C7C422)
NDM-4 = NDM-4 (Klebsiella pneumoniae, UniProt C7C422, M154L)
IMP-6 = IMP-6 (Serratia marcescens, UniProt P52699, S214G)
CTX-M-15 = CTX-M-15 (Escherichia coli, UniProt Q9EXV5)
NDM-7 = NDM-7 (Klebsiella pneumoniae, UniProt C7C422, D130N/M154L)
SHV-12 = SHV-12 (Klebsiella pneumoniae, UniProt P0A3M1, L31Q)
VIM-1 = VIM-1 (Pseudomonas aeruginosa, UniProt A0A0F7KYQ8)
CTX-M-14 = CTX-M-14 (Escherichia coli, UniProt Q9L5C7)
OXA-66 = OXA-66 (Acinetobacter baumannii, UniProt Q58XD2)
VIM-2 = VIM-2 (Escherichia coli, UniProt Q5U7L7)
OXA-65 = OXA-65 (Acinetobacter baumannii, UniProt Q58XD3)
KPC-3 = KPC-3 (Klebsiella pneumoniae, UniProt Q9F663, H272Y)
OXA-48 = OXA-48 (Klebsiella pneumoniae, UniProt Q6XEC0)
KPC-2 = KPC-2 (Klebsiella pneumoniae, UniProt Q9F663)
OXA-24 = OXA-24 (Acinetobacter baumannii, UniProt Q8RLA6)
KPC-38 = KPC-38 (Klebsiella pneumoniae, UniProt Q9F663); details: read-out: Ki app, means from three independent studies
OXA-23 = OXA-23 (Acinetobacter baumannii, UniProt Q9L4P2)

SMILES	Ki (NDM-6)	Ki (SHV-5)	Ki (NDM-5)	Ki (SHV-2)	Ki (CTX-M-27)	Ki (OXA-72)	Ki (IMP-1)	Ki (NDM-1)	Ki (NDM-4)	Ki (IMP-6)	Ki (CTX-M-15)	Ki (NDM-7)	Ki (SHV-12)	Ki (VIM-1)	Ki (CTX-M-14)	Ki (OXA-66)	Ki (VIM-2)	Ki (OXA-65)	Ki (OXA-24)	Ki (OXA-23)	other results
NC(=O)[C@@H]1CC[C@@H]2CN1C(=O)N2OS(=O)(=O)O [Avibactam, avibactam]	> 100000 nM	2.15 ± 0.264 nM	> 100000 nM	2.26 ± 1.44 nM	1.29 ± 0.663 nM	691 ± 63.8 nM	> 100000 nM	> 100000 nM	> 100000 nM	> 100000 nM	0.369 ± 0.0569 nM	> 100000 nM	2.55 ± 0.696 nM	> 100000 nM	2.35 ± 0.763 nM	7350 nM	> 100000 nM	5900 nM	–	–	–
C[C@]1(Cn2ccnn2)[C@H](C(=O)O)N2C(=O)C[C@H]2S1(=O)=O [Tazobactam, tazobactam]	> 100000 nM	1.84 ± 0.243 nM	> 100000 nM	0.187 ± 0.104 nM	0.0403 ± 0.0162 nM	78.9 ± 8.96 nM	> 100000 nM	> 100000 nM	> 100000 nM	> 100000 nM	0.0387 ± 0.00434 nM	> 100000 nM	1.68 ± 0.266 nM	> 100000 nM	–	> 100000 nM	> 100000 nM	> 100000 nM	100 ± 45.6 nM	14 ± 5.31 nM	Ki (KPC-3): 270 ± 80.8 nM; Ki (OXA-48): 5.32 ± 0.329 nM; Ki (KPC-2): 159 ± 48.2 nM; Ki (KPC-38): 112 ± 14.5 nM
O=C(NC1CCNCC1)[C@@H]1CC[C@@H]2CN1C(=O)N2OS(=O)(=O)O [Relebactam, relebactam]	> 100000 nM	6.26 ± 1.53 nM	> 100000 nM	0.373 ± 0.0856 nM	3.62 ± 1.2 nM	≥ 37400 nM	> 100000 nM	> 100000 nM	> 100000 nM	> 100000 nM	0.841 ± 0.235 nM	> 100000 nM	19.3 ± 6.32 nM	> 100000 nM	5.96 ± 3.22 nM	> 100000 nM	> 100000 nM	> 100000 nM	> 100000 nM	5640 nM	–
O=C(O)C[C@@H]1CC[C@H](NC(=O)Cc2cccs2)B(O)O1 [Vaborbactam, vaborbactam]	> 100000 nM	1420 nM	> 100000 nM	> 100000 nM	351 ± 28.7 nM	> 100000 nM	> 100000 nM	> 100000 nM	> 100000 nM	> 100000 nM	78.1 ± 6.63 nM	> 100000 nM	755 ± 103 nM	> 100000 nM	392 ± 20.3 nM	> 100000 nM	> 100000 nM	> 100000 nM	> 100000 nM	> 100000 nM	Ki (KPC-3): 88.3 ± 30.3 nM; Ki (OXA-48): > 100000 nM; Ki (KPC-2): 63.7 ± 24.9 nM; Ki (KPC-38): 48.3 ± 13.2 nM
